# Source: paper PMC4128710 (Biochemical pharmacology, 2014)
# Where two headings read alike, the source gives them in different places.
# Key:
# [1] = system: A1 and A3 ARs; test: Inhibition of forskolin-stimulated cAMP accumulation
# [2] = biological target: T1, A2BAR (Homo sapiens, UniProt P29275); test: ERK1/2 phosphorylation in T24 cells; details: for Emax: T-24, read-out: Max effect ERK1/2 (% of effect of NECA)
# T1 sequence (P29275 1-332): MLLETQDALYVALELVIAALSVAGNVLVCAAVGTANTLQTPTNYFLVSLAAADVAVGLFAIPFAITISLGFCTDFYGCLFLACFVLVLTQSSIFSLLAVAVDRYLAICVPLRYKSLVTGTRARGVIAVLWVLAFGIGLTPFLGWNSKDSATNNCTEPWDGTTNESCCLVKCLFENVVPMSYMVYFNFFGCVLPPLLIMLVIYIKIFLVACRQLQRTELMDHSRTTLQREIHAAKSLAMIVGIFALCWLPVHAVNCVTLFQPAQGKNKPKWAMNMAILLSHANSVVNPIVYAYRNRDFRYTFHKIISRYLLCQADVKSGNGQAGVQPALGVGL
# [3] = biological target: T1, A2BAR; test: Intracellular calcium mobilization in T24 cells; details: for Emax: T-24, read-out: Max effect Calcium (% of effect of NECA)
# [4] = biological target: T2, mouse A2BAR (Mus musculus, UniProt Q60614); test: β-Arrestin2 translocation in PathHunter CHO cells; details: for Emax: CHO, read-out: Max effect β-arrestin (% of effect of NECA); for log (τ/KA) / τ / Δlog (τ/Ka): β-Arrestin pathway; for τ: operational model, CHO mouse A2BAR; for Δlog (τ/Ka): relative to NECA
# T2 sequence (Q60614 1-332): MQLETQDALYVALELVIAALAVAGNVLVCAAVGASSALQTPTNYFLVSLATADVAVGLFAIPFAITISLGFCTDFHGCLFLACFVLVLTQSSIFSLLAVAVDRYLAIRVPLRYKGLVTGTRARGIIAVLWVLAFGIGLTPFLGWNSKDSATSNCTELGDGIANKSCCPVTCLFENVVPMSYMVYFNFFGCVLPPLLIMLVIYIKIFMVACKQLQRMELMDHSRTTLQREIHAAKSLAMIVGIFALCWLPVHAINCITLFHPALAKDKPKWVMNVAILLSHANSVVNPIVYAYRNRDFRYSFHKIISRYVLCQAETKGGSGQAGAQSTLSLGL
# [5] = biological target: T1, A2BAR; test: ERK1/2 phosphorylation in HEK293 cells; details: for Emax: HEK293, read-out: Max effect ERK1/2 (% of effect of NECA)
# [6] = biological target: T1, A2BAR; test: cAMP accumulation in HEK293 cells overexpressing the A2BAR; details: for Emax: HEK293, read-out: Max effect cAMP (% of effect of NECA); for τ: operational model, A2BAR-overexpressing HEK293
# [7] = biological target: T1, A2BAR; test: ERK1/2 phosphorylation in HEK293 cells overexpressing the A2BAR; details: for log (τ/KA) / τ / Δlog (τ/Ka): ERK1/2 pathway; for τ: operational model, A2BAR-overexpressing HEK293; for Δlog (τ/Ka): relative to NECA; for ΔΔlog (τ/KA): ERK1/2 versus cAMP reference pathway; for Bias: ERK1/2 versus cAMP, bias ≫1 disfavors the pathway; for Emax: HEK293, read-out: Max effect ERK1/2 (% of effect of NECA)
# [8] = biological target: T1, A2BAR; test: cAMP accumulation in T24 cells endogenously expressing the A2BAR; details: for Emax: T-24, read-out: Max effect cAMP (% of effect of NECA)
# [9] = biological target: T1, A2BAR; test: cAMP accumulation in HEK293 cells endogenously expressing the A2BAR; details: for Emax: HEK293, read-out: Max effect cAMP (% of effect of NECA)
# [10] = biological target: T1, A2BAR; test: Intracellular calcium mobilization in HEK293 cells; details: for Emax: HEK293, read-out: Max effect Calcium (% of effect of NECA)
# [11] = biological target: T1, A2BAR; test: Intracellular calcium mobilization in HEK293 cells overexpressing the A2BAR; details: for τ: operational model, A2BAR-overexpressing HEK293; for Bias: Calcium versus cAMP, bias ≫1 disfavors the pathway
# [12] = system: mouse A2BAR; test: β-Arrestin2 translocation in PathHunter CHO cells; details: for ΔΔlog (τ/KA): β-Arrestin versus cAMP reference pathway; for Bias: β-Arrestin versus cAMP, bias ≫1 disfavors the pathway
# [13] = system: A2BAR; test: cAMP accumulation in COS-7 cells endogenously expressing the A2BAR; details: for Max effect cAMP accumulation: NECA = 100; for EC50: read-out: EC50 cAMP accumulation
# [14] = biological target: T1, A2BAR; test: cAMP accumulation in WM266 melanoma cells endogenously expressing the A2BAR; details: for Emax: WM266, read-out: Max effect cAMP accumulation
# [15] = biological target: T1, A2BAR; test: cAMP accumulation in 1321N1 astrocytoma cells endogenously expressing the A2BAR; details: for Emax: 1321-N1, read-out: Max effect cAMP accumulation
# [16] = biological target: T1, A2BAR; details: for Emax: PC-3, read-out: Max effect cAMP accumulation
# [17] = system: MIN-6 mouse pancreatic β cells; test: Insulin release in MIN6 cells; assay type: cell-based; details: MIN-6 cells, 16.7 mM glucose, 1 h
# [18] = PathHunter CHO cells, mouse A2BAR
# [19] = HEK293 cells overexpressing A2BAR
compound,measurement,setting,value
"OC[C@H]1O[C@@H](n2cnc3c(NC4CCCC4)ncnc32)[C@H](O)[C@@H]1O [CPA, N^6-cyclopentyladenosine]",inhibition of forskolin-stimulated cAMP accumulation,[1],inactive
"Nc1ncnc2c1ncn2[C@@H]1O[C@H](C(=O)NC2CC2)[C@@H](O)[C@H]1O [CPCA, adenosine-5′-N-cyclopropyluronamide]",ERK1/2 stimulation relative to basal value,[2]; T24 cells,≤ 2 fold
same,Max effect ERK1/2 (% of effect of NECA),[2]; T24 cells,101 ±8%
same,EC50,"[2]; read-out: EC50 ERK1/2, T24 cells",369 ± 32 nM
same,Max effect Calcium (% of effect of NECA),[3]; T24 cells,101 ±7%
same,EC50,"[3]; read-out: EC50 Calcium, T24 cells",1930 ± 680 nM
same,Max effect β-arrestin (% of effect of NECA),[4]; [18],109 ±9%
same,EC50,"[4]; read-out: EC50 β-arrestin, PathHunter CHO cells, mouse A2BAR",5060 ± 1410 nM
same,Max effect ERK1/2 (% of effect of NECA),"[5]; HEK293 cells, endogenous A2BAR",99.3 ±2.4%
same,EC50,"[5]; read-out: EC50 ERK1/2, HEK293 cells, endogenous A2BAR",1030 ± 230 nM
same,Max effect cAMP (% of effect of NECA),[6]; [19],98.9 ±6.6%
same,EC50,"[6]; read-out: EC50 cAMP, HEK293 cells overexpressing A2BAR",32.8 ± 4.2 nM
same,Max effect ERK1/2 (% of effect of NECA),[7]; [19],100 ±6%
same,EC50,"[7]; read-out: EC50 ERK1/2, HEK293 cells overexpressing A2BAR",1860 ± 240 nM
same,Max effect cAMP (% of effect of NECA),"[8]; T24 cells, NECA = 100%",98.5 ±1.9%
same,EC50,"[8]; read-out: EC50 cAMP, T24 cells",177 ± 67 nM
same,Max effect cAMP (% of effect of NECA),"[9]; HEK293 cells, endogenous A2BAR",102 ±9%
same,EC50,"[9]; read-out: EC50 cAMP, HEK293 cells, endogenous A2BAR",267 ± 32 nM
same,Max effect Calcium (% of effect of NECA),"[10]; HEK293 cells, endogenous A2BAR",98.7 ±6.6%
same,EC50,"[10]; read-out: EC50 Calcium, HEK293 cells, endogenous A2BAR",2620 ± 460 nM
same,Max effect Calcium (% of effect of NECA),[11]; [19],102 ±4%
same,EC50,"[11]; read-out: EC50 Calcium, HEK293 cells overexpressing A2BAR",1490 ± 360 nM
"Nc1nc(Nc2ccccc2)nc2c1ncn2[C@@H]1O[C@H](CO)[C@@H](O)[C@H]1O [CV1808, 2-phenylaminoadenosine]",EC50,[8],9100 ± 5800 nM
CNC(=O)[C@H]1O[C@@H](n2cnc3c(NCc4cccc(I)c4)nc(Cl)nc32)[C@H](O)[C@@H]1O [Cl-IB-MECA],inhibition of forskolin-stimulated cAMP accumulation,[1],inactive
"N#Cc1c(N)nc(SCc2ncc[nH]2)c(C#N)c1-c1ccccc1 [LUF5833, 2-aminophenyl-6-(1H-imidazol-2-ylmethylsulfanyl)pyridine-3,5-dicarbonitrile]",Max effect β-arrestin (% of effect of NECA),[4]; [18],9.7 ±0.6%
"Nc1nc(OCCc2c[nH]c3ccccc23)nc2c1ncn2[C@@H]1O[C@H](CO)[C@@H](O)[C@H]1O [MRS3534, 2-(2-(indol-3-yl)ethyloxy)adenosine]",EC50,[8],2160 ± 350 nM
"Nc1nc(OCCc2c[nH]c3cc(Br)ccc23)nc2c1ncn2[C@@H]1O[C@H](CO)[C@@H](O)[C@H]1O [MRS3997, 2-(2-(6-bromo-indol-3-yl)ethyloxy)adenosine]",ERK1/2 stimulation,[2]; T24 cells,did not produce any stimulation
same,Emax,[2],-8.2 ± 7.6%
same,Emax,[3],-2.7 ± 3.2%
same,Kd,[4],18100 nM
same,Emax,[4],28.1 ± 3.5%
same,log (τ/KA),[4],4.17 ± 0.23
same,τ,[4],0.27
same,Δlog (τ/Ka),[4],-1.56 ± 0.18
same,ΔΔlog (τ/KA),[12],2.15
same,Bias,[12],141
same,EC50,[5],166 ± 32 nM
same,Emax,[5],42.3 ± 9.4%
same,EC50,[6],62.9 ± 7.6 nM
same,Kd,[6],6700 nM
same,Emax,[6],102 ± 6.6%
same,log (τ/KA),[6]; cAMP pathway,6.83 ± 0.45
same,τ,[6]; cAMP pathway,45.1
same,EC50,[7],203 ± 48 nM
same,Kd,[7],362 nM
same,log (τ/KA),[7],6.08 ± 0.89
same,τ,[7],0.44
same,Δlog (τ/Ka),[7],0.45 ± 0.03
same,ΔΔlog (τ/KA),[7],0.14
same,Bias,[7],1.38
same,Emax,[7],29.7 ± 2.6%
same,EC50,[8],745 ± 225 nM
same,Emax,[8],94.9 ± 2.2%
same,Max effect cAMP accumulation,[13],100±6%
same,EC50,[13],226 ± 32 nM
same,EC50,[9],1020 ± 250 nM
same,Emax,[9],96.2 ± 24.3%
same,Emax,[10],1.6 ± 2.2%
same,Kd,[11],7100 nM
same,log (τ/KA),[11]; Calcium pathway,3.35 ± 0.44
same,τ,[11]; Calcium pathway,0.02
same,ΔΔlog (τ/KA),[11]; Calcium versus cAMP reference pathway,4.06
same,Bias,[11],11500
same,EC50,[14],1870 ± 320 nM
same,Emax,[14],96.2 ± 1.8%
same,EC50,[15],1260 ± 180 nM
same,Emax,[15],98.4 ± 3.1%
same,EC50,[16],480 ± 32 nM
same,Emax,[16],98.2 ± 7.7%
"OC[C@H]1O[C@@H](n2cnc3c(Nc4ccc(I)cc4)ncnc32)[C@H](O)[C@@H]1O [MRS5911, N^6-(4-iodophenyl)adenosine]","ERK1/2 phosphorylation, increase above basal value","[2]; T24 cells, 10 μM",~13%
same,Emax,[2],13.1 ± 4.5%
same,EC50,[3],6170 ± 1990 nM
same,Emax,[3],36.9 ± 8.6%
same,EC50,[4],48100 nM
same,Kd,[4],83400 nM
same,Emax,[4],40.9 ± 2.9%
same,log (τ/KA),[4],4.10 ± 0.22
same,τ,[4],1.04
same,Δlog (τ/Ka),[4],-1.63 ± 0.20
same,ΔΔlog (τ/KA),[12],1.38
same,Bias,[12],24
same,EC50,[5],1530 ± 340 nM
same,Emax,[5],46.1 ± 9.2%
same,EC50,[6],25.3 ± 7.8 nM
same,Kd,[6],7760 nM
same,Emax,[6],93.2 ± 4.5%
same,log (τ/KA),[6]; cAMP pathway,7.17 ± 0.68
same,τ,[6]; cAMP pathway,116
same,Δlog (τ/Ka),"[6]; cAMP pathway, relative to NECA",-0.25 ± 0.02
same,EC50,[7],2680 ± 460 nM
same,Kd,[7],5260 nM
same,log (τ/KA),[7],5.11 ± 0.52
same,τ,[7],0.68
same,Δlog (τ/Ka),[7],-0.52 ± 0.04
same,ΔΔlog (τ/KA),[7],0.27
same,Bias,[7],1.86
same,Emax,[7],36.3 ± 5.2%
same,EC50,[8],899 ± 226 nM
same,Emax,[8],77.7 ± 3.3%
same,Max effect cAMP accumulation,[13],99.3±2.1%
same,EC50,[13],418 ± 22 nM
same,EC50,[9],1130 ± 340 nM
same,Emax,[9],68.7 ± 11.1%
same,Emax,[10],7.1 ± 3.2%
same,EC50,[11],7150 ± 2360 nM
same,Kd,[11],84700 nM
same,log (τ/KA),[11]; Calcium pathway,3.84 ± 0.19
same,τ,[11]; Calcium pathway,0.59
same,Δlog (τ/Ka),"[11]; Calcium pathway, relative to NECA",-1.20 ± 0.13
same,Bias,[11],85
same,EC50,[14],1270 ± 220 nM
same,Emax,[14],48.3 ± 4.9%
same,EC50,[15],1010 ± 180 nM
same,Emax,[15],89.8 ± 9.2%
same,EC50,[16],321 ± 66 nM
same,Emax,[16],89.4 ± 2.6%
"CCNC(=O)[C@H]1O[C@@H](n2cnc3c(N)ncnc32)[C@H](O)[C@@H]1O [NECA, adenosine-5′-N-ethyluronamide]",Max effect β-arrestin (% of effect of NECA),[4]; [18],100%
same,τ,[4],38.9
same,Bias,[12],1.00
CCCn1c(=O)[nH]c2nc(-c3ccc(S(=O)(=O)N4CCN(c5ccc(Cl)cc5)CC4)cc3)[nH]c2c1=O [PSB603],Glucose stimulated insulin secretion,[17],induced insulin secretion
"C[C@H](Cc1ccccc1)Nc1ncnc2c1ncn2[C@@H]1O[C@H](CO)[C@@H](O)[C@H]1O [R-PIA, R-N^6-(phenylisopropyl)adenosine]",Max effect β-arrestin (% of effect of NECA),[4]; [18],13.2 ±1.1%
